Test results: ChEMBL document CHEMBL4118101 (Bioorg Med Chem, 2018)
≈ marks a conversion by molar mass, not a printed value. Calls of active or inactive are those of the source. The rule behind the calls is not given here.

Key:
[1] = test system: Cryptococcus neoformans; test: Antifungal activity against Cryptococcus neoformans isolate CN2 measured after 48 hrs by CLSI M27-A3 protocol based method; format: functional; details: Cryptococcus neoformans, isolate CN2, 48 h; read-out: MIC
[2] = test system: Candida albicans; test: Antifungal activity against Candida albicans ATCC 10231 measured after 48 hrs by CLSI M27-A3 protocol based method; format: functional; details: ATCC 10231, 48 h
[3] = test system: Candida albicans; test: Antifungal activity against Candida albicans ATCC 64124 measured after 48 hrs by CLSI M27-A3 protocol based method; format: functional; details: Candida albicans, ATCC 64124, 48 h; read-out: MIC
[4] = test system: Candida albicans; test: Antifungal activity against fluconazole/ITC-susceptible Candida albicans ATCC MYA-2876 measured after 48 hrs by CLSI M27-A3 protocol based method; format: functional; details: Candida albicans, ATCC MYA-2876, 48 h
[5] = test system: Candida albicans; test: Antifungal activity against fluconazole/ITC-resistant Candida albicans ATCC 90819 measured after 48 hrs by CLSI M27-A3 protocol based method; format: functional; details: Candida albicans, ATCC 90819, 48 h; read-out: MIC
[6] = test system: Candida albicans; test: Antifungal activity against fluconazole/ITC-susceptible Candida albicans ATCC MYA-2310 measured after 48 hrs by CLSI M27-A3 protocol based method; format: functional; details: Candida albicans, ATCC MYA-2310, 48 h; read-out: MIC
[7] = test system: Candida albicans; test: Antifungal activity against fluconazole/ITC-resistant Candida albicans ATCC MYA-1237 measured after 48 hrs by CLSI M27-A3 protocol based method; format: functional; details: Candida albicans, ATCC MYA-1237, 48 h; read-out: MIC
[8] = test system: Candida albicans; test: Antifungal activity against fluconazole/ITC-resistant Candida albicans ATCC MYA-1003 measured after 48 hrs by CLSI M27-A3 protocol based method; format: functional; details: Candida albicans, ATCC MYA-1003, 48 h; read-out: MIC
[9] = test system: Nakaseomyces glabratus; test: Antifungal activity against Candida glabrata ATCC 2001 measured after 48 hrs by CLSI M27-A3 protocol based method; format: functional, CBS 138; details: Nakaseomyces glabratus, CBS 138, 48 h; read-out: MIC
[10] = test system: Pichia kudriavzevii; test: Antifungal activity against Candida krusei ATCC 6258 measured after 48 hrs by CLSI M27-A3 protocol based method; format: functional; details: Pichia kudriavzevii, ATCC 6258, 48 h
[11] = test system: Candida parapsilosis; test: Antifungal activity against Candida parapsilosis ATCC 22019 measured after 48 hrs by CLSI M27-A3 protocol based method; format: functional; details: Lodderomyces parapsilosis, ATCC 22019, 48 h
[12] = test system: Aspergillus nidulans; test: Antifungal activity against Aspergillus nidulans ATCC 38163 measured after 48 hrs by CLSI M38-A2 protocol based method; format: functional; details: ATCC 38163, 48 h
[13] = test system: Aspergillus flavus; test: Antifungal activity against Aspergillus flavus ATCC MYA-3631 measured after 48 hrs by CLSI M38-A2 protocol based method; format: functional; details: ATCC MYA-3631, 48 h
[14] = test system: Aspergillus terreus; test: Antifungal activity against Aspergillus terreus ATCC MYA-3633 measured after 48 hrs by CLSI M38-A2 protocol based method; format: functional; details: ATCC MYA-3633, 48 h
[15] = test system: Nakaseomyces glabratus; test: Antifungal activity against Candida glabrata isolate CG1 measured after 48 hrs by CLSI M27-A3 protocol based method; format: functional; details: Nakaseomyces glabratus, 48 h; read-out: MIC
[16] = test system: Nakaseomyces glabratus; test: Antifungal activity against Candida glabrata isolate CG2 measured after 48 hrs by CLSI M27-A3 protocol based method; format: functional; details: Nakaseomyces glabratus, isolate CG2, 48 h; read-out: MIC
[17] = test system: Nakaseomyces glabratus; test: Antifungal activity against Candida glabrata isolate CG3 measured after 48 hrs by CLSI M27-A3 protocol based method; format: functional; details: Nakaseomyces glabratus, 48 h; read-out: MIC
[18] = test system: Candida parapsilosis; test: Antifungal activity against Candida parapsilosis isolate CP1 measured after 48 hrs by CLSI M27-A3 protocol based method; format: functional; details: Lodderomyces parapsilosis, isolate CP1, 48 h
[19] = test system: Candida parapsilosis; test: Antifungal activity against Candida parapsilosis isolate CP2 measured after 48 hrs by CLSI M27-A3 protocol based method; format: functional; details: Lodderomyces parapsilosis, isolate CP2, 48 h
[20] = test system: Cryptococcus neoformans; test: Antifungal activity against Cryptococcus neoformans isolate CN1 measured after 48 hrs by CLSI M27-A3 protocol based method; format: functional; details: isolate CN1, 48 h
[21] = test system: Cryptococcus neoformans; test: Antifungal activity against Cryptococcus neoformans isolate CN3 measured after 48 hrs by CLSI M27-A3 protocol based method; format: functional; details: Cryptococcus neoformans, isolate CN3, 48 h; read-out: MIC
[22] = test system: Candida parapsilosis; test: Antifungal activity against Candida parapsilosis isolate CP3 measured after 48 hrs by CLSI M27-A3 protocol based method; format: functional; details: Lodderomyces parapsilosis, isolate CP3, 48 h
[23] = test system: Candida albicans; test: Induction of membrane permeabilization in Candida albicans ATCC 10231 assessed as membrane disruption at 4 times MIC after 1 hr by propidium iodide staining based fluorescence microscopy; format: functional, organism-based

SMILES	MIC [1]	MIC [2]	MIC [3]	MIC [4]	MIC [5]	MIC [6]	MIC [7]	MIC [8]	MIC [9]	MIC [10]	MIC [11]	MIC [12]	MIC [13]	MIC [14]	MIC [15]	MIC [16]	MIC [17]	MIC [18]	MIC [19]	MIC [20]	further results
CCCCCOCCCCCCNCC(O)(Cn1cncn1)c1ccc(F)cc1F (stereo unspecified)	4.6 µM (≈ 1.95 µg/mL)	9.2 µM (≈ 3.91 µg/mL)	> 73.7 µM	73.7 µM (≈ 31.3 µg/mL)	9.2 µM (≈ 3.91 µg/mL)	36.7 µM (≈ 15.6 µg/mL)	9.2 µM (≈ 3.91 µg/mL)	18.4 µM (≈ 7.81 µg/mL)	9.2 to 36.7 µM (≈ 3.91 to 15.6 µg/mL)	4.6 µM (≈ 1.95 µg/mL)	0.57 µM (≈ 0.242 µg/mL)	18.4 µM (≈ 7.81 µg/mL)	> 73.7 µM	73.7 µM (≈ 31.3 µg/mL)	36.7 µM (≈ 15.6 µg/mL)	4.6 µM (≈ 1.95 µg/mL)	73.7 µM (≈ 31.3 µg/mL)	0.28 µM (≈ 0.119 µg/mL)	0.28 µM (≈ 0.119 µg/mL)	1.1 µM (≈ 0.467 µg/mL)	MIC [21]: 4.6 µM (≈ 1.95 µg/mL); MIC [22]: 0.28 µM (≈ 0.119 µg/mL)
CCCCCCNCC(O)(Cn1cncn1)c1ccc(F)cc1F (stereo unspecified)	> 92.3 µM	23 µM (≈ 7.78 µg/mL)	> 92.3 µM	46.1 µM (≈ 15.6 µg/mL)	92.3 µM (≈ 31.2 µg/mL)	92.3 µM (≈ 31.2 µg/mL)	> 92.3 µM	92.3 µM (≈ 31.2 µg/mL)	23 to 46.1 µM (≈ 7.78 to 15.6 µg/mL)	23 µM (≈ 7.78 µg/mL)	2.9 µM (≈ 0.981 µg/mL)	> 92.3 µM	> 92.3 µM	> 92.3 µM	92.3 µM (≈ 31.2 µg/mL)	23 µM (≈ 7.78 µg/mL)	92.3 µM (≈ 31.2 µg/mL)	2.9 µM (≈ 0.981 µg/mL)	2.9 µM (≈ 0.981 µg/mL)	23 µM (≈ 7.78 µg/mL)	MIC [21]: 92.3 µM (≈ 31.2 µg/mL); MIC [22]: 2.9 µM (≈ 0.981 µg/mL); Activity [23]: inactive
CC(C)c1ccc(NCC(O)(Cn2cncn2)c2ccc(F)cc2F)cc1 (stereo unspecified)	84 µM (≈ 31.3 µg/mL)	> 84 µM	> 84 µM	> 84 µM	84 µM (≈ 31.3 µg/mL)	84 µM (≈ 31.3 µg/mL)	84 µM (≈ 31.3 µg/mL)	84 µM (≈ 31.3 µg/mL)	20.9 to 84 µM (≈ 7.78 to 31.3 µg/mL)	> 84 µM	20.9 µM (≈ 7.78 µg/mL)	20.9 µM (≈ 7.78 µg/mL)	84 µM (≈ 31.3 µg/mL)	41.9 µM (≈ 15.6 µg/mL)	20.9 µM (≈ 7.78 µg/mL)	20.9 µM (≈ 7.78 µg/mL)	20.9 µM (≈ 7.78 µg/mL)	10.5 µM (≈ 3.91 µg/mL)	10.5 µM (≈ 3.91 µg/mL)	20.9 µM (≈ 7.78 µg/mL)	MIC [21]: > 84 µM; MIC [22]: 10.5 µM (≈ 3.91 µg/mL)
OC(CNC1CCCCCCC1)(Cn1cncn1)c1ccc(F)cc1F (stereo unspecified)	> 85.8 µM	85.8 µM (≈ 31.3 µg/mL)	85.8 µM (≈ 31.3 µg/mL)	> 85.8 µM	85.8 µM (≈ 31.3 µg/mL)	10.7 to 85.8 µM (≈ 3.9 to 31.3 µg/mL)	85.8 µM (≈ 31.3 µg/mL)	> 85.8 µM	85.8 µM (≈ 31.3 µg/mL)	85.8 µM (≈ 31.3 µg/mL)	10.7 µM (≈ 3.9 µg/mL)	> 85.8 µM	85.8 µM (≈ 31.3 µg/mL)	> 85.8 µM	85.8 µM (≈ 31.3 µg/mL)	42.8 µM (≈ 15.6 µg/mL)	85.8 µM (≈ 31.3 µg/mL)	2.7 µM (≈ 0.984 µg/mL)	2.7 µM (≈ 0.984 µg/mL)	21.4 µM (≈ 7.8 µg/mL)	MIC [21]: 42.8 µM (≈ 15.6 µg/mL); MIC [22]: 5.4 µM (≈ 1.97 µg/mL)
CCCCCCCCN(CCCCCCCC)CC(O)(Cn1cncn1)c1ccc(F)cc1F (stereo unspecified)	> 65.4 µM	65.4 µM (≈ 31.3 µg/mL)	> 65.4 µM	65.4 µM (≈ 31.3 µg/mL)	65.4 µM (≈ 31.3 µg/mL)	> 65.4 µM	65.4 µM (≈ 31.3 µg/mL)	> 65.4 µM	65.4 µM (≈ 31.3 µg/mL)	65.4 µM (≈ 31.3 µg/mL)	2 µM (≈ 0.957 µg/mL)	32.7 µM (≈ 15.7 µg/mL)	> 65.4 µM	> 65.4 µM	32.6 µM (≈ 15.6 µg/mL)	16.3 µM (≈ 7.8 µg/mL)	65.4 µM (≈ 31.3 µg/mL)	2 µM (≈ 0.957 µg/mL)	4.1 µM (≈ 1.96 µg/mL)	> 65.4 µM	MIC [21]: > 65.4 µM; MIC [22]: 4.1 µM (≈ 1.96 µg/mL)
